Test results published in patent publication US20090155387A1, “STABLE PHARMACEUTICAL COMPOSITION COMPRISING BETA-LACTAM ANTIBIOTIC AND ION-CHELATING AGENT” (priority 2006, published 2009).
“Also recorded” adds a separate entry of the source.

Tests used:
[1] = Amounts of β-lactam antibiotic, β-lactamase inhibitor and aminoglycoside antibiotic in solution over time (reverse-phase LC/HPLC); type: physicochemical
Protocol: The amounts of β-lactam antibiotics and β-lactamase inhibitor were determined using C18 reverse-phase LC and UV-VIS detector (Tianjin […] Co., Ltd., analysis method No. HM-K-03). The content of aminoglycoside antibiotics was measured using reverse-phase HPLC and evaporation-light-scattering detector (ELSD detector) (Tianjin […] Co., Ltd., analysis method No. HM-K-08). The amount of antibiotic component at each time point was expressed as a percentage with respect to the amount at the initial time. The relative amount of each antibiotic component in the composition at each time point was expressed as peak area ratio with respect to the corresponding peak area of an external standard.

[2] = HIAC light obscuration test (USP 788), particle content of solution preparations; type: physicochemical; settings: HIAC test results, composition in the form of a liquid solution
Protocol: Light obscuration testing was performed for solution preparations prepared with some of the compositions described in the examples according to the method described in the United States Pharmacopeia (USP 788) using HIAC-3000 light obscuration detector. Particle content is denoted by the number of particles per milliliter of solution. The value is an average of two measurements. Samples were tested at 1 hour and at 20 hours.

[3] = in Example 8 solution from freeze-dried powder stored 7 days at 0° C., redissolved in injectable water, 0 h
[4] = in Example 8 solution from freeze-dried powder stored 7 days at 0° C., redissolved in injectable water, 1 h
[5] = in Example 8 solution from freeze-dried powder stored 7 days at 0° C., redissolved in injectable water, 2 h
[6] = in Example 8 solution from freeze-dried powder stored 7 days at 0° C., redissolved in injectable water, 4 h
[7] = in Example 8 solution from freeze-dried powder stored 7 days at 0° C., redissolved in injectable water, 6 h
[8] = in Example 8 solution from freeze-dried powder stored 7 days at 0° C., redissolved in injectable water, 8 h
[9] = in Example 17 solution, pH 6.5, room temperature, 0 h
[10] = in Example 17 solution, pH 6.5, room temperature, 1 h
[11] = in Example 17 solution, pH 6.5, room temperature, 2 h
[12] = in Example 17 solution, pH 6.5, room temperature, 4 h
[13] = in Example 17 solution, pH 6.5, room temperature, 6 h
[14] = in Example 17 solution, pH 6.5, room temperature, 8 h
[15] = in Example 18 solution (2.5% fructose), pH 6.5, room temperature, 0 h
[16] = in Example 18 solution (2.5% fructose), pH 6.5, room temperature, 1 h
[17] = in Example 18 solution (2.5% fructose), pH 6.5, room temperature, 2 h

CO/N=C(\C(=O)N[C@@H]1C(=O)N2C(C(=O)O)=C(CSc3nc(=O)c(=O)[nH]n3C)CS[C@H]12)c1csc(N)n1 [Ceftriaxone sodium]
amount (percentage of initial amount) ([1]; in Example 7 solution, pH 6.75, room temperature, 0 h): 97.01% | amount (percentage of initial amount) ([1]; in Example 7 solution, pH 6.75, room temperature, 1 h): 100.3% | amount (percentage of initial amount) ([1]; in Example 7 solution, pH 6.75, room temperature, 2 h): 96.40% | amount (percentage of initial amount) ([1]; in Example 7 solution, pH 6.75, room temperature, 4 h): 99.01% | amount (percentage of initial amount) ([1]; in Example 7 solution, pH 6.75, room temperature, 6 h): 98.91% | amount (percentage of initial amount) ([1]; in Example 7 solution, pH 6.75, room temperature, 8 h): 99.53% | amount (percentage of initial amount) [1, 3]: 98.75% | amount (percentage of initial amount) [1, 4]: 100.1% | amount (percentage of initial amount) [1, 5]: 99.97% | amount (percentage of initial amount) [1, 6]: 98.87% | amount (percentage of initial amount) [1, 7]: 99.27% | amount (percentage of initial amount) [1, 8]: 100.5% | amount (percentage of initial amount) ([1]; in Example 9 solution from freeze-dried powder stored 7 days at 0° C., redissolved in injectable water, 0 h): 92.24% | amount (percentage of initial amount) ([1]; in Example 9 solution from freeze-dried powder stored 7 days at 0° C., redissolved in injectable water, 1 h): 96.28% | amount (percentage of initial amount) ([1]; in Example 9 solution from freeze-dried powder stored 7 days at 0° C., redissolved in injectable water, 2 h): 94.97% | amount (percentage of initial amount) ([1]; in Example 9 solution from freeze-dried powder stored 7 days at 0° C., redissolved in injectable water, 4 h): 94.20% | amount (percentage of initial amount) ([1]; in Example 9 solution from freeze-dried powder stored 7 days at 0° C., redissolved in injectable water, 6 h): 97.91% | amount (percentage of initial amount) ([1]; in Example 9 solution from freeze-dried powder stored 7 days at 0° C., redissolved in injectable water, 8 h): 93.23% | amount (percentage of initial amount) ([1]; in Example 24 solution, pH 6.75, room temperature, 0 h): 110.2% | amount (percentage of initial amount) ([1]; in Example 24 solution, pH 6.75, room temperature, 1 h): 117.6% | amount (percentage of initial amount) ([1]; in Example 24 solution, pH 6.75, room temperature, 2 h): 119.4% | amount (percentage of initial amount) ([1]; in Example 24 solution, pH 6.75, room temperature, 4 h): 111.5% | amount (percentage of initial amount) ([1]; in Example 24 solution, pH 6.75, room temperature, 6 h): 113.4% | amount (percentage of initial amount) ([1]; in Example 24 solution, pH 6.75, room temperature, 8 h): 120.0%

O=C(O)CN(CCN(CC(=O)O)CC(=O)O)CC(=O)O [EDTA, ethylenediamine tetraacetic acid]
effect on aggregate particle formation in solution preparations [2]: can significantly reduce aggregate particle formation; also recorded: effective in inhibiting formation of aggregate particles

CCN[C@@H]1C[C@H](N)[C@@H](O[C@H]2O[C@H](CN)CC[C@H]2N)[C@H](O)[C@H]1O[C@H]1OC[C@](C)(O)[C@H](NC)[C@H]1O [Etimicin]
amount (percentage of initial amount) ([1]; in Example 6 solution, pH 6.5, room temperature, 0 h): 108.9% | amount (percentage of initial amount) ([1]; in Example 6 solution, pH 6.5, room temperature, 1 h): 100.2% | amount (percentage of initial amount) ([1]; in Example 6 solution, pH 6.5, room temperature, 2 h): 100.5% | amount (percentage of initial amount) ([1]; in Example 6 solution, pH 6.5, room temperature, 4 h): 100.4% | amount (percentage of initial amount) ([1]; in Example 6 solution, pH 6.5, room temperature, 6 h): 100.4% | amount (percentage of initial amount) ([1]; in Example 6 solution, pH 6.5, room temperature, 8 h): 97.50% | amount (percentage of initial amount) ([1]; in Example 13 solution (Example 12 solution + etimicin sulfate), 0 h): 100% | amount (percentage of initial amount) ([1]; in Example 13 solution (Example 12 solution + etimicin sulfate), 1 h): 98.8% | amount (percentage of initial amount) ([1]; in Example 13 solution (Example 12 solution + etimicin sulfate), 2 h): 97.5% | amount (percentage of initial amount) ([1]; in Example 13 solution (Example 12 solution + etimicin sulfate), 4 h): 98.4% | amount (percentage of initial amount) ([1]; in Example 13 solution (Example 12 solution + etimicin sulfate), 6 h): 95.6% | amount (percentage of initial amount) ([1]; in Example 13 solution (Example 12 solution + etimicin sulfate), 8 h): 92.8% | amount (percentage of initial amount) [1, 9]: 100.1% | amount (percentage of initial amount) [1, 10]: 100.4% | amount (percentage of initial amount) [1, 11]: 99.31% | amount (percentage of initial amount) [1, 12]: 99.56% | amount (percentage of initial amount) [1, 13]: 99.61% | amount (percentage of initial amount) [1, 14]: 99.25% | amount (percentage of initial amount) [1, 15]: 100.1% | amount (percentage of initial amount) [1, 16]: 100.6% | amount (percentage of initial amount) [1, 17]: 99.79% | amount (percentage of initial amount) ([1]; in Example 23 solution (2.5% fructose), pH 6.75, room temperature, 0 h): 104.5% | amount (percentage of initial amount) ([1]; in Example 23 solution (2.5% fructose), pH 6.75, room temperature, 1 h): 99.13% | amount (percentage of initial amount) ([1]; in Example 23 solution (2.5% fructose), pH 6.75, room temperature, 2 h): 103.3% | amount (percentage of initial amount) ([1]; in Example 23 solution (2.5% fructose), pH 6.75, room temperature, 4 h): 98.75% | amount (percentage of initial amount) ([1]; in Example 23 solution (2.5% fructose), pH 6.75, room temperature, 6 h): 101.6% | amount (percentage of initial amount) ([1]; in Example 23 solution (2.5% fructose), pH 6.75, room temperature, 8 h): 96.42% | amount (percentage of initial amount) ([1]; in Example 26 solution (2.5% fructose), pH 6.75, room temperature, 0 h): 94.69% | amount (percentage of initial amount) ([1]; in Example 26 solution (2.5% fructose), pH 6.75, room temperature, 1 h): 102.9% | amount (percentage of initial amount) ([1]; in Example 26 solution (2.5% fructose), pH 6.75, room temperature, 2 h): 109.3% | amount (percentage of initial amount) ([1]; in Example 26 solution (2.5% fructose), pH 6.75, room temperature, 4 h): 108.8% | amount (percentage of initial amount) ([1]; in Example 26 solution (2.5% fructose), pH 6.75, room temperature, 6 h): 109.6% | amount (percentage of initial amount) ([1]; in Example 26 solution (2.5% fructose), pH 6.75, room temperature, 8 h): 105.2%

CC1(C)S[C@@H]2[C@H](NC(=O)[C@H](NC(=O)N3CCN(S(C)(=O)=O)C3=O)c3ccccc3)C(=O)N2[C@H]1C(=O)O [Mezlocillin sodium]
amount (percentage of initial amount) ([1]; in Example 11 solution (pH 6.0) from freeze-dried powder stored 7 days at 0° C., redissolved, 0 h): 97.11% | amount (percentage of initial amount) ([1]; in Example 11 solution (pH 6.0) from freeze-dried powder stored 7 days at 0° C., redissolved, 1 h): 90.83% | amount (percentage of initial amount) ([1]; in Example 11 solution (pH 6.0) from freeze-dried powder stored 7 days at 0° C., redissolved, 2 h): 98.18% | amount (percentage of initial amount) ([1]; in Example 11 solution (pH 6.0) from freeze-dried powder stored 7 days at 0° C., redissolved, 4 h): 93.69% | amount (percentage of initial amount) ([1]; in Example 11 solution (pH 6.0) from freeze-dried powder stored 7 days at 0° C., redissolved, 6 h): 91.23% | amount (percentage of initial amount) ([1]; in Example 11 solution (pH 6.0) from freeze-dried powder stored 7 days at 0° C., redissolved, 8 h): 94.39% | amount (percentage of initial amount) [1, 9]: 116.6% | amount (percentage of initial amount) [1, 10]: 94.83% | amount (percentage of initial amount) [1, 11]: 91.86% | amount (percentage of initial amount) [1, 12]: 91.96% | amount (percentage of initial amount) [1, 13]: 91.52% | amount (percentage of initial amount) [1, 14]: 98.56% | amount (percentage of initial amount) [1, 15]: 96.48% | amount (percentage of initial amount) [1, 16]: 95.90% | amount (percentage of initial amount) [1, 17]: 71.70% | amount (percentage of initial amount) ([1]; in Example 18 solution (2.5% fructose), pH 6.5, room temperature, 4 h): 91.78% | amount (percentage of initial amount) ([1]; in Example 18 solution (2.5% fructose), pH 6.5, room temperature, 6 h): 93.08% | amount (percentage of initial amount) ([1]; in Example 18 solution (2.5% fructose), pH 6.5, room temperature, 8 h): 97.69%

C[C@]1(Cn2ccnn2)[C@H](C(=O)O)N2C(=O)C[C@H]2S1(=O)=O [Tazobactam sodium]
amount (percentage of initial amount) [1, 3]: 102.2% | amount (percentage of initial amount) [1, 4]: 97.53% | amount (percentage of initial amount) [1, 5]: 94.16% | amount (percentage of initial amount) [1, 6]: 94.58% | amount (percentage of initial amount) [1, 7]: 95.45% | amount (percentage of initial amount) [1, 8]: 94.44% | amount (percentage of initial amount) ([1]; in Example 16 solution, pH 6.5, room temperature, 0 h): 98.77% | amount (percentage of initial amount) ([1]; in Example 16 solution, pH 6.5, room temperature, 1 h): 108.2% | amount (percentage of initial amount) ([1]; in Example 16 solution, pH 6.5, room temperature, 2 h): 110.8% | amount (percentage of initial amount) ([1]; in Example 16 solution, pH 6.5, room temperature, 4 h): 97.39% | amount (percentage of initial amount) ([1]; in Example 16 solution, pH 6.5, room temperature, 6 h): 106.3% | amount (percentage of initial amount) ([1]; in Example 16 solution, pH 6.5, room temperature, 8 h): 106.3% | amount (percentage of initial amount) ([1]; in Example 21 solution, pH 6.75, room temperature (22° C.), 0 h): 93.36% | amount (percentage of initial amount) ([1]; in Example 21 solution, pH 6.75, room temperature (22° C.), 1 h): 104.8% | amount (percentage of initial amount) ([1]; in Example 21 solution, pH 6.75, room temperature (22° C.), 2 h): 100.0% | amount (percentage of initial amount) ([1]; in Example 21 solution, pH 6.75, room temperature (22° C.), 4 h): 96.58% | amount (percentage of initial amount) ([1]; in Example 21 solution, pH 6.75, room temperature (22° C.), 6 h): 106.1% | amount (percentage of initial amount) ([1]; in Example 21 solution, pH 6.75, room temperature (22° C.), 8 h): 107.1%

Gentamicin
amount (percentage of initial amount) ([1]; in Example 5 solution, pH 6.75, room temperature, 0 h): 101.7% | amount (percentage of initial amount) ([1]; in Example 5 solution, pH 6.75, room temperature, 1 h): 104.2% | amount (percentage of initial amount) ([1]; in Example 5 solution, pH 6.75, room temperature, 2 h): 96.1% | amount (percentage of initial amount) ([1]; in Example 5 solution, pH 6.75, room temperature, 4 h): 100.1%
